Molecular target: human estrogen receptor β (hERβ) (Homo sapiens, UniProt Q92731)
Assay: Antiestrogenic activity in the in vitro bioassay: recombinant CHO cells co-transfected with hERβ, rat oxytocin promoter and luciferase reporter gene
Format: cell-based
Conditions: potency ratio relative to standard ICI 164.384; inhibition of estradiol-induced luciferase transactivation via hERβ in CHO cells
Protocol: The estrogenic and antiestrogenic activity of compounds is determined in an in vitro bioassay with recombinant Chinese hamster ovary (CHO) cells stably co-transfected with the human estrogen receptor α (hERα) or β receptor (hERβ), the rat oxytocin promoter (RO) and the luciferase reporter gene (LUC). The estrogenic activity (potency ratio) of a test compound to stimulate the transactivation of the enzyme luciferase mediated via the estrogen receptors hERα or hERβ is compared with the standard estrogen estradiol. The antiestrogenic activity (potency ratio) of a test compound to inhibit the transactivation of the enzyme luciferase mediated via the estrogen receptors hERα or hERβ by the estrogen estradiol is compared with the standard ICI 164.384 (=(7α,17β)-N-butyl-3,17-dihydroxy-N-methylestra-1,3,5(10)-triene-7-undecanamide).

human estrogen receptor β (hERβ), sequence (Q92731 whole entry): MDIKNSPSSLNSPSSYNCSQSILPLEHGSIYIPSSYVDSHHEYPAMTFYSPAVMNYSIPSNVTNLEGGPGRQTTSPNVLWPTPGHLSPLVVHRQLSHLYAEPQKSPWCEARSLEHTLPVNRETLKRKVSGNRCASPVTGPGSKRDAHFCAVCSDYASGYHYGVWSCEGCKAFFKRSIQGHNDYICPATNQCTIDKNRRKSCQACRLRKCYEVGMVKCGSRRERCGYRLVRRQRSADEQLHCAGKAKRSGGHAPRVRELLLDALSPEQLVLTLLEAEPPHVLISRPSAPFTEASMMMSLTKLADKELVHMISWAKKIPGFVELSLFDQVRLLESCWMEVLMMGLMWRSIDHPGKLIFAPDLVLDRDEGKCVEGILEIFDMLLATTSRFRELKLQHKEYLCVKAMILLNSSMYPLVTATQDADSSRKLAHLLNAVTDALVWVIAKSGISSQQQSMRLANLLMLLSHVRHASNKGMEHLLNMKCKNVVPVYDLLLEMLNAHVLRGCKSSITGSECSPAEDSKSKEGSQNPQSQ

| SMILES | ERβ antagonism |
| --- | --- |
| Oc1ccc2c(c1)Cc1c-2cc2ccc(O)cc2c1-c1ccc(Cl)cc1 [Compound 5a] | + (5 > 5% (relative to ICI): +) |
| Oc1ccc2c(c1)Cc1c-2cc2ccc(O)cc2c1-c1ccc2ccccc2c1 [Compound 5b] | + (5 > 5% (relative to ICI): +) |
| COc1cccc(-c2c3c(cc4ccc(O)cc24)-c2ccc(O)cc2C3)c1 [Compound 5c] | + (5 > 5% (relative to ICI): +) |
| Oc1ccc2c(c1)Cc1c-2cc2ccc(O)cc2c1-c1cccc(C(F)(F)F)c1 [Compound 5d] | + (5 > 5% (relative to ICI): +) |
| Cc1ccc(-c2c3c(cc4ccc(O)cc24)-c2ccc(O)cc2C3)cc1 [Compound 5e] | ++ (> 40%: ++) |
| Oc1ccc2c(c1)Cc1c-2cc2ccc(O)cc2c1-c1ccc(F)c(Cl)c1 [Compound 5f] | + (5 > 5% (relative to ICI): +) |
| Oc1ccc2c(c1)Cc1c-2cc2ccc(O)cc2c1-c1ccc2c(c1)OCO2 [Compound 5g] | + (5 > 5% (relative to ICI): +) |
| Oc1ccc2c(c1)Cc1c-2cc2ccc(O)cc2c1-c1ccc(-c2ccccc2)cc1 [Compound 5h] | + (5 > 5% (relative to ICI): +) |
| Oc1ccc2c(c1)Cc1c-2cc2ccc(O)cc2c1-c1cccc(F)c1 [Compound 5j] | + (5 > 5% (relative to ICI): +) |
| COc1ccc(-c2c3c(cc4ccc(O)cc24)-c2ccc(O)cc2C3)cc1 [Compound 5k] | + (5 > 5% (relative to ICI): +) |
| Oc1ccc2c(c1)Cc1c-2cc2ccc(O)cc2c1-c1ccc(F)cc1 [Compound 5l] | ++ (> 40%: ++) |
| Oc1ccc2c(c1)Cc1c-2cc2ccc(O)cc2c1-c1ccc(Cl)c(Cl)c1 [Compound 5m] | ++ (> 40%: ++) |
| Oc1ccc2c(c1)Cc1c-2cc2ccc(O)cc2c1-c1cccc(Cl)c1 [Compound 5n] | + (5 > 5% (relative to ICI): +) |
| Oc1ccc2c(c1)Cc1c-2cc2ccc(O)cc2c1-c1ccc(C(F)(F)F)cc1 [Compound 5o] | + (5 > 5% (relative to ICI): +) |
| Cc1cccc(-c2c3c(cc4ccc(O)cc24)-c2ccc(O)cc2C3)c1 [Compound 5p] | + (5 > 5% (relative to ICI): +) |
| CC(C)c1cccc(-c2c3c(cc4ccc(O)cc24)-c2ccc(O)cc2C3)c1 [Compound 5q] | + (5 > 5% (relative to ICI): +) |
| Oc1ccc2c(c1)Cc1c-2cc2ccc(O)cc2c1-c1ccc(OC(F)(F)F)cc1 [Compound 5r] | ++ (> 40%: ++) |
| Oc1ccc2c(c1)Cc1c-2cc2ccc(O)cc2c1-c1ccc(-c2ccccc2)c(F)c1 [Compound 5s] | + (5 > 5% (relative to ICI): +) |
| Oc1ccc2c(c1)Cc1c-2cc2ccc(O)cc2c1-c1ccccc1C(F)(F)F [Compound 5u] | ++ (> 40%: ++) |
| Oc1ccc2c(c1)Cc1c-2cc2ccc(O)cc2c1-c1ccccc1 [Compound 5v] | + (5 > 5% (relative to ICI): +) |
| Oc1ccc2c(c1)Cc1c-2cc2ccc(O)cc2c1-c1ccc(OCCN2CCCCC2)cc1 [Compound 9] | ++ (> 40%: ++) |

— patent publication US6756375B2, “10-Aryl-11h-benzo[b]fluorene derivatives and analogs for medicinal use” (Akzo Nobel N.V., priority 2000, dated 2004)
